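All cell lines were grown in 96-well plates and treated with compound for 48 hours. Here, GI50 denotes the concentration required for 50% inhibition of growth.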 The source made the active and inactive calls. Cut-off read from the data, not from the text of the source: active = GI50 up to about 1.1 µM and inactive = higher.
Legend:
Assay in all cases: NCI anticancer screen, dose series, 48 h
[1] = tested on: SK-MEL-2
[2] = tested on: SK-MEL-5
[3] = tested on: DLD-1
[4] = tested on: A549
[5] = tested on: A498
[6] = tested on: OVCAR-8
[7] = tested on: TK-10
[8] = tested on: SN12C
[9] = tested on: 786-0
[10] = tested on: XF498
[11] = tested on: NCI-H226
[12] = tested on: M14
[13] = tested on: CCRF-CEM
[14] = tested on: M19-MEL
[15] = tested on: OVCAR-5
[16] = tested on: SF-268
[17] = tested on: HOP-62
[18] = tested on: HOP-92
[19] = tested on: NCI-H23
[20] = tested on: UACC-257
[21] = tested on: SNB-78
[22] = tested on: ACHN
[23] = tested on: LXFL 529
[24] = tested on: HCC 2998
[25] = tested on: SR
[26] = tested on: HCT-116
[27] = tested on: LOX IMVI
[28] = tested on: SW-620
[29] = tested on: IGROV-1
[30] = tested on: DMS-114
[31] = tested on: DMS-273
[32] = tested on: U-251
[33] = tested on: EKVX
[34] = tested on: HOP-18
[35] = tested on: SK-MEL-28
[36] = tested on: KM12
[37] = tested on: HT-29
[38] = tested on: HCT-15
[39] = tested on: KM-20L2
[40] = tested on: K562
[41] = tested on: CAKI-1
[42] = tested on: SNB-19
[43] = tested on: Malme-3M
[44] = tested on: SNB-75
[45] = tested on: MOLT-4
[46] = tested on: UACC-62
[47] = tested on: SF-539
[48] = tested on: SF-295
[49] = tested on: HL-60
[50] = tested on: NCI-H522
[51] = tested on: NCI-H460
[52] = tested on: SK-OV-3
[53] = tested on: UO-31
[54] = tested on: COLO 205

Measured: GI50

Oc1cc2c(cc1O)-c1[nH]ncc1CC2
54.1 µM: [38]
inactive: [1] 64.9 µM | [2] 35.1 µM | [3] 52.5 µM | [4] 42.4 µM | [5] 25.4 µM | [6] 37.9 µM | [7] 75 µM | [8] 49 µM | [9] 39.6 µM | [10] 27.6 µM | [11] 18.6 µM | [12] 72.4 µM | [13] 11.4 µM | [14] 40.7 µM | [15] 63.4 µM | [16] 25.6 µM | [17] 55.5 µM | [18] 14.4 µM | [19] 35.4 µM | [20] 58.7 µM | [21] 80.4 µM | [22] 21.6 µM | [23] 31.3 µM | [24] 22.4 µM | [25] 27.8 µM | [26] 51.1 µM | [27] 33.5 µM | [28] 35.4 µM | [29] 31.6 µM | [30] 16.5 µM | [31] 42.1 µM | [32] 18.2 µM | [33] 10.2 µM | [34] 6.15 µM | [35] 58.3 µM | [36] 49.5 µM | [37] 37.6 µM | [39] 38.5 µM | [40] 32.7 µM | [41] 33.6 µM | [42] 46.8 µM | [43] 59.8 µM | [44] 16.6 µM | [45] 22.4 µM | [46] 27.8 µM | [47] 22.4 µM | [48] 49.1 µM | [49] 24.3 µM | [50] 11.7 µM | [51] 43.3 µM | [52] 22.5 µM | [53] 18.4 µM | [54] 26.1 µM

Reference: ChEMBL document CHEMBL1201862, “PubChem BioAssay data set” (2004)
